From ChEMBL document CHEMBL1130579, “Design and synthesis of curacin a analogs with varied side chain structures” (Bioorg Med Chem Lett, 1997)
Values after ≈ are worked out from the molar mass of the structure shown.

How the values were obtained:
PC-9 = assay: Compound was tested for its cytotoxicity against PC-9 human lung cancer cell line; format: functional, cell-based
[1] = target: Tubulin alpha chain (Sus scrofa) (UniProt P02550); assay: Compound was tested for percentage of tubulin polymerized at 50 uM dose of compound; format: functional
Tubulin alpha chain (Sus scrofa), sequence (P02550 whole entry, looked up): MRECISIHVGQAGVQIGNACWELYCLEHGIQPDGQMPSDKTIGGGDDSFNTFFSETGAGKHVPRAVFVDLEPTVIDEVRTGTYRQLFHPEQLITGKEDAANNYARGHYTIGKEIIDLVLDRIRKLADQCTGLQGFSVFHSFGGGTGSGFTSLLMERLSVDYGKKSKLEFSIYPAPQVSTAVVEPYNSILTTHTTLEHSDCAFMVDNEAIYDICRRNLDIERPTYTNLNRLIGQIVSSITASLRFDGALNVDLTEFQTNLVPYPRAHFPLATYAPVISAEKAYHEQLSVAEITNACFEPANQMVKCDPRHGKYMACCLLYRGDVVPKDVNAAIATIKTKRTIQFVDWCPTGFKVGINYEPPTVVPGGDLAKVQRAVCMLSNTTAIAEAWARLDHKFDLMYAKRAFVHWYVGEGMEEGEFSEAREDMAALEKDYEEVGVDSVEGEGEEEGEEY

Tubulin alpha chain [2] = target: T1, Tubulin alpha chain (Sus scrofa, UniProt P02550); assay: Compound was tested for inhibitory activity against tubulin polymerization; format: functional
T1 sequence (P02550 whole entry, looked up): as above

WiDr = assay: Compound was tested for its cytotoxicity against WiDr human colon cancer cell line; format: functional, cell-based
NCI-H69 = assay: Compound was tested for its cytotoxicity against NCI-H69 human lung cancer cell line; format: functional, cell-based
Tubulin alpha chain [3] = target: T1, Tubulin alpha chain; assay: Compound was evaluated for its anti tubulin activity

SMILES | IC50 (PC-9) [µg/mL] | Activity [1] [%] | IC50 (Tubulin alpha chain [2]) [µM] | IC50 (WiDr) [µg/mL] | IC50 (NCI-H69) [µg/mL] | IC50 (Tubulin alpha chain [3]) [µM]
CCCCCCCCCCCC/C=C\[C@@H]1CSC([C@@H]2C[C@@H]2C)=N1 | 77.2 (≈ 230 µM) | 100 | > 50 | 84.9 (≈ 253 µM) | 54.1 (≈ 161 µM) | –
C=CC[C@@H](CC/C(C)=C/C=C/CC/C=C\[C@@H]1CSC(C2CC2C)=N1)OC (single isomer, unassigned) [CURACIN A] | – | – | – | – | – | 2.5
CCCCCCCc1cccc(CC/C=C\[C@@H]2CSC([C@@H]3C[C@@H]3C)=N2)c1 | 35.5 (≈ 96.1 µM) | 85 | > 50 | 69.3 (≈ 187 µM) | 64.7 (≈ 175 µM) | –
CC(C)=C/C=C/CC/C=C\[C@@H]1CSC([C@@H]2C[C@@H]2C)=N1 | – | 100 | > 50 | – | – | –
CCCCCCc1ccc(CC/C=C\[C@@H]2CSC([C@@H]3C[C@@H]3C)=N2)cc1 | 50.2 (≈ 141 µM) | 95 | > 50 | 42.5 (≈ 119 µM) | 76.5 (≈ 215 µM) | –
C/C=C/CC/C=C\[C@@H]1CSC([C@@H]2C[C@@H]2C)=N1 | 37.7 (≈ 160 µM) | 84 | > 50 | 33.7 (≈ 143 µM) | 31.7 (≈ 135 µM) | –
C=CC[C@@H](CC/C(C)=C/C=C/CC/C=C\[C@@H]1CSC([C@@H]2C[C@@H]2C)=N1)OC [CURACIN A] | 19.6 (≈ 52.5 µM) | – | 2.5 | < 0.2 | 0.89 (≈ 2.38 µM) | –
C[C@H]1C[C@H]1C1=N[C@H](/C=C\CCCc2ccccc2)CS1 | 24 (≈ 84 µM) | 93 | > 50 | 19.3 (≈ 67.6 µM) | 45.2 (≈ 158 µM) | –
C[C@H]1C[C@H]1C1=N[C@H](/C=C\CCc2ccccc2)CS1 | 30.1 (≈ 111 µM) | 71 | > 50 | 19.6 (≈ 72.3 µM) | 34.1 (≈ 125 µM) | –
